Data published in patent EP2768830B1, “APOPTOSIS-INDUCING AGENTS FOR THE TREATMENT OF CANCER AND IMMUNE AND AUTOIMMUNE DISEASES” (AbbVie Inc., priority 2011, dated 2013).
Where two headings read alike, the source gives them in different places.

Key:
GST-Bcl-xL = GST-Bcl-xL (Homo sapiens, UniProt Q07817); conditions: read-out: TR-FRET binding Bcl-xL Ki
[1] = test system: mouse FL5.12 cells transfected with Bcl-XL; assay: FL5.12 cellular assay (cell viability, CellTiter-Glo); assay type: cell-based; conditions: FL5.12 cells transfected with Bcl-XL, IL-3-depleted, 3% FBS assay media, 24 hours, CellTiter-Glo, read-out: FL5.12 Bcl-xL, - IL3, EC 50;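 note: each EC50 determination derived from duplicate measurements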

Sequence of GST-Bcl-xL (Q07817 whole entry): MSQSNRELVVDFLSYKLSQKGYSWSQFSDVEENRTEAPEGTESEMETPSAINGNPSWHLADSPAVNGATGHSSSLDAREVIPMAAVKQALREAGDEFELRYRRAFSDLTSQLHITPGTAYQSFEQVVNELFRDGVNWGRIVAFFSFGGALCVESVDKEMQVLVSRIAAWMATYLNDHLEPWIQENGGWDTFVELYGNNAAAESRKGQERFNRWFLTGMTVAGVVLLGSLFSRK

Row | Structure (SMILES) | Ki (GST-Bcl-xL) [nM] | EC50 ([1]; Mus musculus) [nM] | EC50 [1] [nM]
1 | Cc1c(OC2CCCC(C)(C)C2)cccc1-c1ccc(N2CCc3cccc(C(=O)Nc4nc5ccccc5s4)c3C2)nc1C(=O)O (stereo not drawn) [Example 121, 6-[8-(1,3-benzothiazol-2-ylcarbamoyl)-3,4-dihydroisoquinolin-2(1H)-yl]-3-{3-[(3,3-dimethylcyclohexyl)oxy]-2-methylphenyl}pyridine-2-carboxylic acid] | 0.1 | 82 | –
2 | Cc1c(-c2ccc(N3CCc4cccc(C(=O)Nc5nc6ccccc6s5)c4C3)nc2C(=O)O)cc(C(=O)O)n1Cc1ccccc1 [Example 124, 6-[8-(1,3-benzothiazol-2-ylcarbamoyl)-3,4-dihydroisoquinolin-2(1H)-yl]-3-(1-benzyl-5-carboxy-2-methyl-1H-pyrrol-3-yl)pyridine-2-carboxylic acid] | < 0.1 | 57 | –
3 | O=C(Nc1nc2ccccc2s1)c1cccc2c1CN(c1ccc(-c3cccc(OC4CCCCC4)c3Cl)c(C(=O)O)n1)CC2 [Example 117, 6-[8-(1,3-benzothiazol-2-ylcarbamoyl)-3,4-dihydroisoquinolin-2(1H)-yl]-3-[2-chloro-3-(cyclohexyloxy)phenyl]pyridine-2-carboxylic acid] | < 0.1 | 131 | –
4 | CCc1c(-c2ccc(N3CCc4cccc(C(=O)Nc5nc6ccccc6s5)c4C3)nc2C(=O)O)cnn1CC1CCCCC1 [Example 84, 6-[8-(1,3-benzothiazol-2-ylcarbamoyl)-3,4-dihydroisoquinolin-2(1H)-yl]-3-[1-(cyclohexylmethyl)-5-ethyl-1H-pyrazol-4-yl]pyridine-2-carboxylic acid] | 0.7 | 12 | –
5 | Cc1c(-c2ccc(N3CCc4cccc(C(=O)Nc5nc6ccccc6s5)c4C3)nc2C(=O)O)cnn1CC1(N2CCOCC2)CCCCC1 [Example 160, 6-[8-(1,3-benzothiazol-2-ylcarbamoyl)-3,4-dihydroisoquinolin-2(1H)-yl]-3-(5-methyl-1-{[1-(morpholin-4-yl)cyclohexyl]methyl}-1H-pyrazol-4-yl)pyridine-2-carboxylic acid] | < 0.1 | 14 | –
6 | O=C(Nc1nc2ccccc2s1)c1cccc2c1CN(c1ccc(-c3cnn(Cc4ccccn4)c3)c(C(=O)O)n1)CC2 [Example 26, 6-[8-(1,3-benzothiazol-2-ylcarbamoyl)-3,4-dihydroisoquinolin-2(1H)-yl]-3-[1-(pyridin-2-ylmethyl)-1H-pyrazol-4-yl]pyridine-2-carboxylic acid] | 167 | – | > 1000
7 | Cc1c(-c2ccc(N3CCc4cccc(C(=O)Nc5nc6ccccc6s5)c4C3)nc2C(=O)O)cc(C#N)n1Cc1ccccc1 [Example 129, 6-[8-(1,3-benzothiazol-2-ylcarbamoyl)-3,4-dihydroisoquinolin-2(1H)-yl]-3-(1-benzyl-5-cyano-2-methyl-1H-pyrrol-3-yl)pyridine-2-carboxylic acid] | < 0.1 | 18 | –
8 | O=C(Nc1nc2ccccc2s1)c1cccc2c1CN(c1ccc(-c3cnn(Cc4cccc(C(F)(F)F)c4)c3)c(C(=O)O)n1)CC2 [Example 61, 6-[8-(1,3-benzothiazol-2-ylcarbamoyl)-3,4-dihydroisoquinolin-2(1H)-yl]-3-{1-[3-(trifluoromethyl)benzyl]-1H-pyrazol-4-yl}pyridine-2-carboxylic acid] | 11 | 380 | –
9 | COCCC1(Cn2cc(-c3ccc(N4CCc5cccc(C(=O)Nc6nc7ccccc7s6)c5C4)nc3C(=O)O)cn2)CCCCC1 [Example 88, 6-[8-(1,3-benzothiazol-2-ylcarbamoyl)-3,4-dihydroisoquinolin-2(1H)-yl]-3-(1-{[1-(2-methoxyethyl)cyclohexyl]methyl}-1H-pyrazol-4-yl)pyridine-2-carboxylic acid] | 3 | 229 | –
10 | O=C(Nc1nc2ccccc2s1)c1cccc2c1CN(c1ccc(-c3ccn(C(=O)c4ccccc4)c3)c(C(=O)O)n1)CC2 [Example 127, 6-[8-(1,3-benzothiazol-2-ylcarbamoyl)-3,4-dihydroisoquinolin-2(1H)-yl]-3-(1-benzoyl-1H-pyrrol-3-yl)pyridine-2-carboxylic acid] | 2 | > 1000 | –
11 | Cc1c(-c2ccc(N3CCc4cccc(C(=O)Nc5nc6ccccc6s5)c4C3C)nc2C(=O)O)cnn1CC1(C)CCCCC1 (stereo not drawn) [Example 163, 6-[8-(1,3-benzothiazol-2-ylcarbamoyl)-1-methyl-3,4-dihydroisoquinolin-2(1H)-yl]-3-{5-methyl-1-[(1-methylcyclohexyl)methyl]-1H-pyrazol-4-yl}pyridine-2-carboxylic acid] | 0.4 | 211 | –
12 | Cc1c(-c2ccc(N3CCc4cccc(C(=O)Nc5nc6ccccc6s5)c4C3)nc2C(=O)O)cnn1CC1(OCCS(C)(=O)=O)CCCC(C)(C)C1 (stereo not drawn) [Example 178, 6-[8-(1,3-benzothiazol-2-ylcarbamoyl)-3,4-dihydroisoquinolin-2(1H)-yl]-3-[1-({3,3-dimethyl-1-[2-(methylsulfonyl)ethoxy]cyclohexyl}methyl)-5-methyl-1H-pyrazol-4-yl]pyridine-2-carboxylic acid] | < 0.1 | 0.2 | –
13 | Cc1nn(Cc2ccccc2)c(C)c1-c1ccc(N2CCc3cccc(C(=O)Nc4nc5ccccc5s4)c3C2)nc1C(=O)O [Example 12, 6-[8-(1,3-benzothiazol-2-ylcarbamoyl)-3,4-dihydroisoquinolin-2(1H)-yl]-3-(1-benzyl-3,5-dimethyl-1H-pyrazol-4-yl)pyridine-2-carboxylic acid] | 8 | 51 | –
14 | O=C(Nc1nc2ccccc2s1)c1cccc2c1CN(c1ccc(-c3cnn(CC4(C(F)(F)F)CCCCC4)c3)c(C(=O)O)n1)CC2 [Example 74, 6-[8-(1,3-benzothiazol-2-ylcarbamoyl)-3,4-dihydroisoquinolin-2(1H)-yl]-3-(1-{[1-(trifluoromethyl)cyclohexyl]methyl}-1H-pyrazol-4-yl)pyridine-2-carboxylic acid] | 6 | 335 | –
15 | Cc1c(OCC2CCCCC2)cccc1-c1ccc(N2CCc3cccc(C(=O)Nc4nc5ccccc5s4)c3C2)nc1C(=O)O [Example 112, 6-[8-(1,3-benzothiazol-2-ylcarbamoyl)-3,4-dihydroisoquinolin-2(1H)-yl]-3-[3-(cyclohexylmethoxy)-2-methylphenyl]pyridine-2-carboxylic acid] | 0.7 | 523 | –
16 | CN(C)CCCOc1ccccc1Cn1cc(-c2ccc(N3CCc4cccc(C(=O)Nc5nc6ccccc6s5)c4C3)nc2C(=O)O)cn1 [Example 47, 6-[8-(1,3-benzothiazol-2-ylcarbamoyl)-3,4-dihydroisoquinolin-2(1H)-yl]-3-(1-{2-[3-(dimethylamino)propoxy]benzyl}-1H-pyrazol-4-yl)pyridine-2-carboxylic acid] | 16 | 881 | –
17 | CC(c1ccccc1)n1cc(-c2ccc(N3CCc4cccc(C(=O)Nc5nc6ccccc6s5)c4C3)nc2C(=O)O)cn1 (stereo not drawn) [Example 5, 6-[8-(1,3-benzothiazol-2-ylcarbamoyl)-3,4-dihydroisoquinolin-2(1H)-yl]-3-[1-(1-phenylethyl)-1H-pyrazol-4-yl]pyridine-2-carboxylic acid] | 19 | 408 | –
18 | Cc1cc(OCC2CCCCC2)ccc1-c1ccc(N2CCc3cccc(C(=O)Nc4nc5ccccc5s4)c3C2)nc1C(=O)O [Example 115, 6-[8-(1,3-benzothiazol-2-ylcarbamoyl)-3,4-dihydroisoquinolin-2(1H)-yl]-3-[4-(cyclohexylmethoxy)-2-methylphenyl]pyridine-2-carboxylic acid] | 5 | 916 | –
19 | N#Cc1c(-c2ccc(N3CCc4cccc(C(=O)Nc5nc6ccccc6s5)c4C3)nc2C(=O)O)cccc1N1CCCC1C12CC3CC(CC(C3)C1)C2 (stereo not drawn) [Example 182, 6-[8-(1,3-benzothiazol-2-ylcarbamoyl)-3,4-dihydroisoquinolin-2(1H)-yl]-3-{2-cyano-3-[2-(tricyclo[3.3.1.1^3,7]dec-1-yl)pyrrolidin-1-yl]phenyl}pyridine-2-carboxylic acid] | 0.2 | 6 | –
20 | O=C(Nc1nc2ccccc2s1)c1cccc2c1CN(c1ccc(-c3cnn(CC4(c5ccccc5)CCCCC4)c3)c(C(=O)O)n1)CC2 [Example 67, 6-[8-(1,3-benzothiazol-2-ylcarbamoyl)-3,4-dihydroisoquinolin-2(1H)-yl]-3-{1-[(1-phenylcyclohexyl)methyl]-1H-pyrazol-4-yl}pyridine-2-carboxylic acid] | 7 | 106 | –
21 | Cc1c(-c2ccc(N3CCc4cccc(C(=O)Nc5nc6ccccc6s5)c4C3)nc2C(=O)O)ccnc1OC1CCCCC1 [Example 138, 6-[8-(1,3-benzothiazol-2-ylcarbamoyl)-3,4-dihydroisoquinolin-2(1H)-yl]-2'-(cyclohexyloxy)-3'-methyl-3,4'-bipyridine-2-carboxylic acid] | < 0.1 | > 1000 | –
22 | COC1(Cn2ncc(-c3ccc(N4CCc5cccc(C(=O)Nc6nc7ccccc7s6)c5C4)nc3C(=O)O)c2C)CCCCC1 [Example 165, 6-[8-(1,3-benzothiazol-2-ylcarbamoyl)-3,4-dihydroisoquinolin-2(1H)-yl]-3-{1-[(1-methoxycyclohexyl)methyl]-5-methyl-1H-pyrazol-4-yl}pyridine-2-carboxylic acid] | < 0.1 | 9 | –
23 | CCOC(=O)c1nn(Cc2ccccc2)c(C)c1-c1ccc(N2CCc3cccc(C(=O)Nc4nc5ccccc5s4)c3C2)nc1C(=O)O [Example 33, 6-[8-(1,3-benzothiazol-2-ylcarbamoyl)-3,4-dihydroisoquinolin-2(1H)-yl]-3-[1-benzyl-3-(ethoxycarbonyl)-5-methyl-1H-pyrazol-4-yl]pyridine-2-carboxylic acid] | 169 | > 1000 | –
24 | CN(C)c1ccccc1Cn1cc(-c2ccc(N3CCc4cccc(C(=O)Nc5nc6ccccc6s5)c4C3)nc2C(=O)O)cn1 [Example 80, 6-[8-(1,3-benzothiazol-2-ylcarbamoyl)-3,4-dihydroisoquinolin-2(1H)-yl]-3-{1-[2-(dimethylamino)benzyl]-1H-pyrazol-4-yl}pyridine-2-carboxylic acid] | 4 | 253 | –
